Test results taken from ChEMBL document CHEMBL3813651, “Structure-activity relationships of dibenzoylhydrazines for the inhibition of P-glycoprotein-mediated quinidine transport” (Bioorg Med Chem, 2016).

Legend:
[1] = molecular target: ATP-dependent translocase ABCB1 (Homo sapiens, UniProt P08183); assay: Inhibition of human P-glycoprotein transfected in pig LLC-GA5-COL150 cells assessed as quinidine transport from apical to basolateral side preincubated for 30 mins followed by quinidine addition to apical side measured after 60 mins; type: cell-based; parameters: log(activity): scale not given here; conditions: for log(activity): human, llc-ga5-col150, 1 h
P-glycoprotein (ABCB1) = P-glycoprotein (ABCB1) (Homo sapiens, UniProt P08183); assay: Inhibition of human P-glycoprotein transfected in pig LLC-GA5-COL150 cells assessed as quinidine transport from apical to basolateral side at 30 uM preincubated for 30 mins followed by quinidine addition to apical side measured after 60 mins; type: cell-based; conditions: LLC-PK1, probe quinidine
[2] = Lipophilicity , logP of the compound; type: physicochemical; conditions: octanol/water

Chain of ATP-dependent translocase ABCB1 (P08183 whole entry): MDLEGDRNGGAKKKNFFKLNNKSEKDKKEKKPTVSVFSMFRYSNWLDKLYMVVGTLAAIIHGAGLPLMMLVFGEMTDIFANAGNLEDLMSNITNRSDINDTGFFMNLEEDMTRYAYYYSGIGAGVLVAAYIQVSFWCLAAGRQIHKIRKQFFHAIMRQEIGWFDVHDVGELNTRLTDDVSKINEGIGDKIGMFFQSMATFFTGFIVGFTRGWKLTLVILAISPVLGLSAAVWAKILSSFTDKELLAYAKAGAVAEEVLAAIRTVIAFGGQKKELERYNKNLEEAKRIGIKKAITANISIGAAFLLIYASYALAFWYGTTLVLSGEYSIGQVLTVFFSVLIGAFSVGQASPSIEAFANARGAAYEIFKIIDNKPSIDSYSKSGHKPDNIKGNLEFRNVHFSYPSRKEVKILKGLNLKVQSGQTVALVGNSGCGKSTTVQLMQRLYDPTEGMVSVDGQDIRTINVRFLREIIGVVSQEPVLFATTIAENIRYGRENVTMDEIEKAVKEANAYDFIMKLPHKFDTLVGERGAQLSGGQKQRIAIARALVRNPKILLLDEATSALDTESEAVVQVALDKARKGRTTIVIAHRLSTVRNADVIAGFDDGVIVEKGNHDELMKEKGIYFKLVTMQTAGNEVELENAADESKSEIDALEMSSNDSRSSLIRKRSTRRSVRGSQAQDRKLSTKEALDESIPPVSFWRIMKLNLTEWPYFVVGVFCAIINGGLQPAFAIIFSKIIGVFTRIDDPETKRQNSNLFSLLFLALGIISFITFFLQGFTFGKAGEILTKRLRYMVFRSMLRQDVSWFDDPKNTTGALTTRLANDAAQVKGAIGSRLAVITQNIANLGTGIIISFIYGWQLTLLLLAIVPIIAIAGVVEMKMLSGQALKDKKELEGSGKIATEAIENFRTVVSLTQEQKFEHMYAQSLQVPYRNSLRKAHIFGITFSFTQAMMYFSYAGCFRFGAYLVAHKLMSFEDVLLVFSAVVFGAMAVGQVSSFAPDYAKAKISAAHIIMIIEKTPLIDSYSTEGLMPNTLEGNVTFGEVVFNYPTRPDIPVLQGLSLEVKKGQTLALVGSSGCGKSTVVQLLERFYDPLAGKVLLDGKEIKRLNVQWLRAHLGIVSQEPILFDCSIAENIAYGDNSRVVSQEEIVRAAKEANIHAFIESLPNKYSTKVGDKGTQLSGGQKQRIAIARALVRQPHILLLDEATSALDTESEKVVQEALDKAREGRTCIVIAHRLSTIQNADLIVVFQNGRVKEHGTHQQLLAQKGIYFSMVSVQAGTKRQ
Chain of P-glycoprotein (ABCB1) (P08183 whole entry): as above

Row | SMILES | log(activity) [1] | inhibition at 1 h, 30 µM (P-glycoprotein (ABCB1)) | IC50 [1] | logP [2]
1 | CC(C)(C)N(NC(=O)c1ccccc1)C(=O)c1ccccc1Cl | -1.25 | 5.4% |  | 
2 | Cc1cc(C)cc(C(=O)N(NC(=O)c2ccccc2)C(C)(C)C)c1 | -0.69 | 17% | 100 µM | 
3 | Cc1cc(C)cc(C(=O)N(NC(=O)c2cccc(C)c2C)C(C)(C)C)c1 | -0.16 | 41.1% |  | 4.43
4 | Cc1cc(C)cc(C(=O)N(NC(=O)c2ccc(Cl)cc2)C(C)(C)C)c1 | -0.78 | 14.2% |  | 4.31
5 | CC(C)(C)N(NC(=O)c1ccccc1F)C(=O)c1ccccc1Cl | -1.21 | 5.9% |  | 
6 | CC(C)(C)N(NC(=O)c1cccc(Cl)c1)C(=O)c1ccccc1Cl | -0.43 | 27.3% | 45.7 µM | 
7 | CCCc1ccc(C(=O)NN(C(=O)c2ccccc2Cl)C(C)(C)C)cc1 | -0.02 | 48.7% |  | 
8 | COc1ccc(C(=O)NN(C(=O)c2ccccc2Cl)C(C)(C)C)cc1 | -1.13 | 6.9% |  | 
9 | CC(=O)c1ccc(C(=O)NN(C(=O)c2ccccc2Cl)C(C)(C)C)cc1 | -1.25 | 5.3% |  | 
10 | CC(C)(C)N(NC(=O)c1ccc(C#N)cc1)C(=O)c1ccccc1Cl | -1.29 | 4.9% |  | 
11 | Cc1ccc(C(=O)NN(C(=O)c2ccccc2Cl)C(C)(C)C)cc1 | -1.1 | 7.3% |  | 
12 | CCc1ccc(C(=O)NN(C(=O)c2ccccc2Cl)C(C)(C)C)cc1 | -0.52 | 23% |  | 
13 | CC(C)(C)N(NC(=O)c1cccc(Cl)c1Cl)C(=O)c1ccccc1Cl | -0.09 | 45% |  | 3.75
14 | Cc1cccc(C(=O)NN(C(=O)c2ccccc2Cl)C(C)(C)C)c1C | -0.99 | 9.3% |  | 3.4
15 | COc1cccc(C(=O)NN(C(=O)c2ccccc2Cl)C(C)(C)C)c1C | -0.86 | 12.2% |  | 3.46
16 | Cc1ccc(C)c(C(=O)NN(C(=O)c2ccccc2Cl)C(C)(C)C)c1 | -0.44 | 26.8% | 73.6 µM | 3.4
17 | COc1cccc(C(=O)NN(C(=O)c2cc(C)cc(C)c2)C(C)(C)C)c1 | -0.28 | 34.2% | 58.1 µM | 3.75
18 | Cc1ccc(C(=O)NN(C(=O)c2cc(C)cc(C)c2)C(C)(C)C)cc1 | -0.35 | 30.9% |  | 3.95
19 | CC(C)(C)N(NC(=O)c1ccccc1Cl)C(=O)c1ccccc1Cl | -1.25 | 5.3% |  | 
20 | CC(C)(C)N(NC(=O)c1ccccc1Br)C(=O)c1ccccc1Cl | -0.95 | 10.1% |  | 2.91
21 | CC(C)(C)N(NC(=O)c1ccccc1I)C(=O)c1ccccc1Cl | -0.55 | 21.8% |  | 3.11
22 | CC(C)(C)N(NC(=O)c1cccc(F)c1)C(=O)c1ccccc1Cl | -1.08 | 7.6% |  | 
23 | CC(C)(C)N(NC(=O)c1cccc(Br)c1)C(=O)c1ccccc1Cl | -0.31 | 33% |  | 3.62
24 | CC(C)(C)N(NC(=O)c1cccc(C#N)c1)C(=O)c1ccccc1Cl | -0.98 | 9.5% |  | 2.48
25 | Cc1cccc(C(=O)NN(C(=O)c2ccccc2Cl)C(C)(C)C)c1 | -0.89 | 11.5% |  | 
26 | COc1cccc(C(=O)NN(C(=O)c2ccccc2Cl)C(C)(C)C)c1 | -0.92 | 10.8% |  | 2.81

Row | SMILES | log(activity) [1] | inhibition at 1 h, 30 µM (P-glycoprotein (ABCB1)) | IC50 [1] | logP [2]
27 | CC(C)(C)N(NC(=O)c1ccc(F)cc1)C(=O)c1ccccc1Cl | -1.3 | 4.8% |  | 
28 | CC(C)(C)N(NC(=O)c1ccc(C(F)(F)F)cc1)C(=O)c1ccccc1Cl | -0.71 | 16.2% |  | 
29 | Cc1cc(C)cc(C(=O)N(NC(=O)c2ccc(F)c(F)c2F)C(C)(C)C)c1 |  | 2.5% |  | 3.64
30 | COc1ccccc1C(=O)NN(C(=O)c1ccccc1Cl)C(C)(C)C | -1.14 | 6.7% |  | 2.37
31 | CCOc1cccc(C(=O)NN(C(=O)c2cc(C)cc(C)c2)C(C)(C)C)c1 | 0.02 | 50.9% | 39.9 µM | 4.28
32 | CC(C)(C)N(NC(=O)c1cccc(I)c1)C(=O)c1ccccc1Cl | 0.25 | 63.9% |  | 3.87
33 | CC(C)(C)N(NC(=O)c1cc(Cl)cc(Cl)c1)C(=O)c1ccccc1Cl |  | 97.2% |  | 4.29
34 | Cc1cc(C)cc(C(=O)N(NC(=O)c2ccc(C(F)(F)F)cc2)C(C)(C)C)c1 |  | 0.9% |  | 4.66
35 | CSc1ccccc1C(=O)NN(C(=O)c1ccccc1Cl)C(C)(C)C | -1.13 | 7% |  | 2.84
36 | CCCc1ccc(C(=O)NN(C(=O)c2cc(C)cc(C)c2)C(C)(C)C)cc1 | 0.15 | 58.4% | 15.2 µM | 4.86
37 | CC(C)(C)N(NC(=O)c1ccccc1-c1ccccc1)C(=O)c1ccccc1Cl | 0.61 | 80.3% | 12.5 µM | 3.77
38 | Cc1cc(C)cc(C(=O)N(NC(=O)c2cccc(O)c2C)C(C)(C)C)c1 |  | 0.5% |  | 3.84
39 | CC(C)(C)N(NC(=O)c1ccccc1C(F)(F)F)C(=O)c1ccccc1Cl | -0.73 | 15.6% |  | 3.02
40 | Cc1cc(C)cc(C(=O)N(NC(=O)c2cccc(O)c2)C(C)(C)C)c1 |  | 1% |  | 3.34
41 | Cc1cccc(C(=O)NN(C(=O)c2cc(C)cc(C)c2)C(C)(C)C)c1 | -0.23 | 36.8% | 48.2 µM | 3.98
42 | Cc1cc(C)cc(C(=O)N(NC(=O)c2ccc(C)c(C)c2C)C(C)(C)C)c1 | 0.07 | 54.2% |  | 4.88
43 | CC(C)(C)N(NC(=O)c1ccc(Cl)c(Cl)c1)C(=O)c1ccccc1Cl |  | 98.9% |  | 4.25
44 | Cc1cc(C)cc(C(=O)N(NC(=O)c2cc(F)c(F)cc2F)C(C)(C)C)c1 |  | 1.9% |  | 3.71
45 | CC(C)(C)N(NC(=O)c1cccc(C(F)(F)F)c1)C(=O)c1ccccc1Cl | -0.3 | 33.4% | 43.8 µM | 3.7
46 | CC(C)(C)N(NC(=O)c1cccc([N+](=O)[O-])c1)C(=O)c1ccccc1Cl | -0.7 | 16.6% | 64.4 µM | 2.73
47 | Cc1cc(C)cc(C(=O)N(NC(=O)c2ccccc2C)C(C)(C)C)c1 | -0.54 | 22.3% | 79.9 µM | 3.98
48 | CC(C)(C)N(NC(=O)c1ccc(Cl)cc1Cl)C(=O)c1ccccc1Cl | -0.16 | 40.7% |  | 3.71
49 | Cc1cc(C)cc(C(=O)N(NC(=O)c2ccc(C(C)C)cc2)C(C)(C)C)c1 | -0.02 | 49% |  | 4.91
50 | CC(C)(C)N(NC(=O)c1ccccc1[N+](=O)[O-])C(=O)c1ccccc1Cl |  | 1.7% |  | 1.99
51 | COc1cccc(C(=O)NN(C(=O)c2cc(C)cc(C)c2)C(C)(C)C)c1C [METHOXYFENOZIDE] | -0.33 | 32% | 44.3 µM | 
52 | CCc1ccc(C(=O)NN(C(=O)c2cc(C)cc(C)c2)C(C)(C)C)cc1 [TEBUFENOZIDE] | 0.06 | 53.3% | 21.5 µM | 
